In patent publication US20140357602A1, “Combination Therapies For Treating Metabolic Disorders” (Genmedica Therapeutics SL, priority 2009, published 2014):

Key:
[1] = tested on: alloxan-treated cd-1 mice; test: Alloxan induced beta cell destruction model (in vivo β-cell protection)
Method: In Vivo β-Cell Protection Model β-cell destruction was induced in cd-1 male mice after 3 hours of fasting by a single intra-peritoneal (i.p.) injection of a freshly prepared solution of alloxan 200 mg/kg (Sigma-Aldrich, San Luis, Mo.) that was dissolved in NaCl 0.9%. One single intra-peritoneal drug administration was given one hour before the Alloxan administration. […] At the end of the treatment, day 4, animals were sacrificed and the plasma collected and kept at −20° C. until used.
Pancreatic beta cell destruction was induced in the cd-1 mice after 3 hours of fasting by a single intraperitoneal injection of a freshly prepared solution of alloxan 200 mg/kg (Sigma-Aldrich, San Luis, Mo.) that was dissolved in NaCl 0.9%. Single drug intraperitoneal administration was 1 hour before the alloxan administration. […] The control group was injected with the vehicle, PBS at pH 7.4. Glycemia was measured on arterio-venous blood collected from the tail vessels between 9:00 and 10:00 am on day 0 (day of drug administration) to day 4.

[2] = tested on: islets; conditions: low-dose streptozotocin-induced insulitis; cited from earlier work
[3] = tested on: INS-1E β-cells; test: In vitro INS-1E β-cell assay (apoptosis, caspase 3/7); format: cell-based; conditions: apoptosis promoted by high (11 mM) glucose and high (0.4 mM) palmitate
Method: INS-1E β-cells were cultivated in the presence of a high glucose concentration (11 mM) and a high palmitate concentration (0.4 mM bound to BSA 0.5%) in order to promote glucotoxicity and lipotoxicity. […] The capacity of protecting β-cells with different combinations of antioxydants and anti-inflammatory agents were tested using these stressing conditions that reflect the pathophysiological conditions implicated in pancreatic dysfunction related to diabetes onset. INS-1E cells were seeded at a density of 80,000 cells/cm^2 in 96 wells plates 4 days before the beginning of the treatment. At 60-80% of confluence, cells were fasted with RPMI 5 mM of glucose+FBS 10%. […] The day after, fasting medium was changed by the stressing medium (glucose […]+palmitate 0.4 mM bound to BSA 0.5%). Medium, and tested agents when present, were changed every 24 h. 48 h after the addition of the stressing medium, apoptosis was measured with Apo-One Homogeneous Caspase 3/7 Assay (Promega) which determines the activity of caspase 3 and 7. […] Resulting fluorescence was read at 485/530 (excitation/emission wave length). The background apoptosis, in absence of stressing condition, was determined with INS 1E-cells cultured in the presence of fasting medium (RPMI 5 mM glucose+FBS 10%). […]

[4] = tested on: type II diabetes patients; conditions: cited from earlier work
[5] = type II diabetes patients, 4 grams/day

## CC(=O)N[C@@H](CS)C(=O)O [N-acetylcysteine]
[1]; FIG. 3, NAC alone i.p. 0.38 and 0.75 mmol/kg
  glycemia: significant reductions of glycemia were observed only at the highest administered concentrations
[1]; FIG. 3, NAC alone i.p., highest concentrations administered
  insulinemia: significantly increased
[1]; NAC alone 0.19 mmol/kg i.p.
  glycemia: not to affect glycemia
[1]; NAC alone 0.38 mmol/kg
  glycemia: statistically-significant reductions in glycemia
[2]
  protection of islets from immune destruction: partially protect

## O=C([O-])c1ccccc1O.[Na+] [Salicylate, Sodium Salicylate]
[1]; FIG. 3, salicylate alone i.p. 0.38, 0.75 and 1.5 mmol/kg
  glycemia: significant reductions of glycemia were observed only at the highest administered concentrations
[1]; sodium salicylate alone 0.38 mmol/kg i.p.
  glycemia: not to affect glycemia
[1]; sodium salicylate alone 0.75 mmol/kg
  glycemia: statistically-significant reductions in glycemia

## NCCS(=O)(=O)O [Taurine]
[3]
  Combination concentrations (concentrations that reduced apoptosis): 3 mM

## CC(=O)Oc1ccccc1C(=O)O [aspirin]
[4]; patients with diabetes, high dosage
  glucose levels: lower

## CC(=O)N(O)CCCCCNC(=O)CCC(=O)N(O)CCCCCNC(=O)CCC(=O)N(O)CCCCCN [desferrioxamine]
[2]
  protection of islets from immune destruction: partially protect

## NC(=O)c1cccnc1 [nicotinamide]
[2]
  protection of islets from immune destruction: partially protect

## O=C(Oc1ccccc1C(=O)O)c1ccccc1O [salsalate]
[4]; [5]
  fasting glucose: lowered
  inflammation: reduced

## Cc1c(C)c2c(c(C)c1O)CC[C@@](C)(CCC[C@H](C)CCC[C@H](C)CCCC(C)C)O2 [α-tocopherol]
[3]
  Combination concentrations (concentrations that reduced apoptosis): 1 mM
